In the NIST ThermoML archive (doi:10.1016/j.jct.2017.12.023):
Numbers after ± are expanded uncertainties.

Tests used:
[1] = refractive index (Na D-line) (dimensionless); settings: 100 kPa, Liquid, Standard Abbe refractometry
[2] = Liquid; for viscosity / mass density: 100 kPa; for viscosity: Concentric cylinders viscometry; for mass density: Vibrating tube method; for thermal conductivity: 101.33 kPa, transient hot wire
[3] = refractive index (Na D-line) (dimensionless); xn = mol fraction of the nth substance listed; settings: 100 kPa, Liquid, Standard Abbe refractometry, x2 = 0
[4] = xn = mol fraction of the nth substance listed; settings: 100 kPa, Liquid, x2 = 0; for viscosity: Concentric cylinders viscometry; for mass density: Vibrating tube method

## CCOS(=O)(=O)[O-].CCn1cc[n+](C)c1 [1-ethyl-3-methylimidazolium ethyl sulfate]
[1]; 288.15 K
  refractive index: 1.48155 ± 0.00069
[1]; 293.15 K
  refractive index: 1.48018 ± 0.00069
[1]; 298.15 K
  refractive index: 1.47882 ± 0.00069
[1]; 303.15 K
  refractive index: 1.47746 ± 0.00069
[1]; 308.15 K
  refractive index: 1.47611 ± 0.00069
[1]; 313.15 K
  refractive index: 1.47474 ± 0.00069
[1]; 318.15 K
  refractive index: 1.47341 ± 0.00069
[1]; 323.15 K
  refractive index: 1.47206 ± 0.00069
[1]; 328.15 K
  refractive index: 1.47075 ± 0.00069
[1]; 333.15 K
  refractive index: 1.46943 ± 0.00069
[2]; 288.15 K
  viscosity: 155.55 ± 2.7 mPa·s
  mass density: 1243.07 ± 1.6 kg/m3
[2]; 293.15 K
  viscosity: 117.88 ± 1.8 mPa·s
  mass density: 1239.66 ± 1.6 kg/m3
[2]; 298.15 K
  viscosity: 91.26 ± 1.2 mPa·s
  mass density: 1236.27 ± 1.6 kg/m3
[2]; 303.15 K
  viscosity: 72.1 ± 0.81 mPa·s
  mass density: 1232.87 ± 1.6 kg/m3
  thermal conductivity: 0.1808 ± 0.0073 W/m/K
[2]; 308.15 K
  viscosity: 57.98 ± 0.61 mPa·s
  mass density: 1229.49 ± 1.6 kg/m3
  thermal conductivity: 0.18 ± 0.0072 W/m/K
[2]; 313.15 K
  viscosity: 47.26 ± 0.51 mPa·s
  mass density: 1226.13 ± 1.6 kg/m3
  thermal conductivity: 0.1795 ± 0.0072 W/m/K
[2]; 318.15 K
  viscosity: 39.25 ± 0.42 mPa·s
  mass density: 1222.79 ± 1.6 kg/m3
  thermal conductivity: 0.1787 ± 0.0072 W/m/K
[2]; 323.15 K
  viscosity: 32.94 ± 0.35 mPa·s
  mass density: 1219.46 ± 1.6 kg/m3
  thermal conductivity: 0.178 ± 0.0072 W/m/K
[2]; 328.15 K
  viscosity: 27.96 ± 0.3 mPa·s
  mass density: 1216.16 ± 1.6 kg/m3
[2]; 333.15 K
  viscosity: 24.09 ± 0.26 mPa·s
  mass density: 1212.86 ± 1.5 kg/m3

## CN1CCCC1=O [N-methylpyrrolidone] + CCOS(=O)(=O)[O-].CCn1cc[n+](C)c1
[3]; 288.15 K
  refractive index: 1.47166 ± 0.00069
[3]; 293.15 K
  refractive index: 1.46952 ± 0.00069
[3]; 298.15 K
  refractive index: 1.46736 ± 0.00069
[3]; 303.15 K
  refractive index: 1.4652 ± 0.00069
[3]; 308.15 K
  refractive index: 1.46306 ± 0.00069
[3]; 313.15 K
  refractive index: 1.46095 ± 0.00069
[3]; 318.15 K
  refractive index: 1.45891 ± 0.00069
[3]; 323.15 K
  refractive index: 1.4568 ± 0.00069
[3]; 328.15 K
  refractive index: 1.45473 ± 0.00069
[3]; 333.15 K
  refractive index: 1.45267 ± 0.00069
[4]; 288.15 K
  viscosity: 1.99 ± 0.023 mPa·s
  mass density: 1037.3 ± 1.5 kg/m3
[4]; 293.15 K
  viscosity: 1.823 ± 0.021 mPa·s
  mass density: 1032.84 ± 1.5 kg/m3
[4]; 298.15 K
  viscosity: 1.679 ± 0.019 mPa·s
  mass density: 1028.38 ± 1.5 kg/m3
[4]; 303.15 K
  viscosity: 1.555 ± 0.018 mPa·s
  mass density: 1023.93 ± 1.5 kg/m3
[4]; 308.15 K
  viscosity: 1.444 ± 0.017 mPa·s
  mass density: 1019.46 ± 1.5 kg/m3
[4]; 313.15 K
  viscosity: 1.346 ± 0.016 mPa·s
  mass density: 1015 ± 1.5 kg/m3
[4]; 318.15 K
  viscosity: 1.259 ± 0.015 mPa·s
  mass density: 1010.53 ± 1.5 kg/m3
[4]; 323.15 K
  viscosity: 1.182 ± 0.014 mPa·s
  mass density: 1006.06 ± 1.5 kg/m3
[4]; 328.15 K
  viscosity: 1.11 ± 0.013 mPa·s
  mass density: 1001.58 ± 1.5 kg/m3
[4]; 333.15 K
  viscosity: 1.043 ± 0.013 mPa·s
  mass density: 997.1 ± 1.5 kg/m3

## CCCCCCO [hexan-1-ol]
[1]; 288.15 K
  refractive index: 1.41986 ± 0.00069
[1]; 293.15 K
  refractive index: 1.4179 ± 0.00069
[1]; 298.15 K
  refractive index: 1.41591 ± 0.00069
[1]; 303.15 K
  refractive index: 1.41386 ± 0.00069
[1]; 308.15 K
  refractive index: 1.41182 ± 0.00069
[1]; 313.15 K
  refractive index: 1.40981 ± 0.00069
[1]; 318.15 K
  refractive index: 1.40779 ± 0.00069
[1]; 323.15 K
  refractive index: 1.40574 ± 0.00069
[2]; 288.15 K
  viscosity: 6.297 ± 0.068 mPa·s
  mass density: 822.26 ± 1.5 kg/m3
[2]; 293.15 K
  viscosity: 5.324 ± 0.058 mPa·s
  mass density: 818.69 ± 1.5 kg/m3
[2]; 298.15 K
  viscosity: 4.53 ± 0.049 mPa·s
  mass density: 815.11 ± 1.5 kg/m3
[2]; 303.15 K
  viscosity: 3.889 ± 0.043 mPa·s
  mass density: 811.51 ± 1.5 kg/m3
[2]; 308.15 K
  viscosity: 3.355 ± 0.037 mPa·s
  mass density: 807.88 ± 1.5 kg/m3
[2]; 313.15 K
  viscosity: 2.912 ± 0.032 mPa·s
  mass density: 804.23 ± 1.5 kg/m3
[2]; 318.15 K
  viscosity: 2.541 ± 0.028 mPa·s
  mass density: 800.56 ± 1.5 kg/m3
[2]; 323.15 K
  viscosity: 2.251 ± 0.025 mPa·s
  mass density: 796.85 ± 1.5 kg/m3

## CCCCCCO [hexan-1-ol] + CCOS(=O)(=O)[O-].CCn1cc[n+](C)c1
[3]; 288.15 K
  refractive index: 1.41986 ± 0.00069
[3]; 293.15 K
  refractive index: 1.4179 ± 0.00069
[3]; 298.15 K
  refractive index: 1.41591 ± 0.00069
[3]; 303.15 K
  refractive index: 1.41386 ± 0.00069
[3]; 308.15 K
  refractive index: 1.41182 ± 0.00069
[3]; 313.15 K
  refractive index: 1.40981 ± 0.00069
[3]; 318.15 K
  refractive index: 1.40779 ± 0.00069
[3]; 323.15 K
  refractive index: 1.40574 ± 0.00069
[4]; 288.15 K
  viscosity: 6.297 ± 0.068 mPa·s
  mass density: 822.26 ± 1.5 kg/m3
[4]; 293.15 K
  viscosity: 5.324 ± 0.058 mPa·s
  mass density: 818.69 ± 1.5 kg/m3
[4]; 298.15 K
  viscosity: 4.53 ± 0.049 mPa·s
  mass density: 815.11 ± 1.5 kg/m3
[4]; 303.15 K
  viscosity: 3.889 ± 0.043 mPa·s
  mass density: 811.51 ± 1.5 kg/m3
[4]; 308.15 K
  viscosity: 3.355 ± 0.037 mPa·s
  mass density: 807.88 ± 1.5 kg/m3
[4]; 313.15 K
  viscosity: 2.912 ± 0.032 mPa·s
  mass density: 804.23 ± 1.5 kg/m3
[4]; 318.15 K
  viscosity: 2.541 ± 0.028 mPa·s
  mass density: 800.56 ± 1.5 kg/m3
[4]; 323.15 K
  viscosity: 2.251 ± 0.025 mPa·s
  mass density: 796.85 ± 1.5 kg/m3
